US6800280B2, “Methods for treating HIV-infected patients by the administration of GM-CSF and a protease inhibitor” (Schering AG, priority 1997, dated 2004)
“And” between values parts separate entries of the source, which are not always exact repeats. Identical values can stand only once. “Also recorded” adds a separate entry of the source.

How the values were obtained:
[1] = test system: CD4^+ T-lymphocyte counts; assay: Phase I/II randomized, double-blind, placebo-controlled trial: CD4^+ T-lymphocyte counts in HIV-infected patients; assay type: in vivo, human
Description: (§1) A study was conducted to determine the safety and efficacy of human GM-CSF as a therapeutic reagent in HIV-infected patients. Because some in vitro studies had indicated the possibility that GM-CSF might enhance HIV replication in vivo, this study assessed the impact of co-administration of GM-CSF with an antiretroviral agent on HIV replication. HIV viral burden was measured by the RNA-PCR (Amplicor®) method. To assess the effects of this treatment on lymphocyte counts, blood samples were analyzed throughout the study for determination of CD3^+, CD4^+, and CD8^+ T-lymphocyte counts.
This study was a Phase I/II, randomized, double-blind, placebo-controlled, two-center trial involving patients with HIV disease. Patients meeting specific entry criteria were randomized to treatment with GM-CSF or placebo, and these were administered by subcutaneous injection three times per week for eight weeks. Viral load was determined at baseline (mean of three determinations within fourteen days of study entry), then at two weeks, four weeks, and eight weeks after starting study drugs, and on two separate occasions approximately four weeks after the conclusion of the treatment phase (post-treatment evaluation). Clinical and lymphocyte subset evaluations were performed at each of these same time points (i.e., pre-treatment, week 2, week 4, week 8, and 4 weeks post-study). Twenty patients were enrolled in the study, ten per treatment arm. All twenty patients completed the study.
Patients were eligible for inclusion in the study if the following parameters were met: documented HIV infection, including detectable RNA-PCR during baseline evaluation period, age ≧18 years (or legal age of consent), adequate hematologic function, satisfactory hepatic and renal function, adequate clinical performance status, treatment with an antiretroviral regimen that included either ritonavir or indinavir for at least 8 weeks prior to study enrollment and agreement to continue on a stable regimen throughout the study, ability and willingness to provide written informed consent, agreement to practice medically-approved contraception.
Patients were ineligible for inclusion in the study if the following exclusion criteria were met: concurrent pregnancy or breast feeding, concurrent use of other colony stimulating factors or cytokines (other than erythropoietin), life-expectancy <90 days, concurrent radiation or systemic cancer chemotherapy (or within 2 weeks prior to study entry), inability to self-administer or arrange for administration of subcutaneous injections, significant cardiac disease, prior history of adverse reaction to yeast-derived rhu GM-CSF which would prohibit retreatment, active infection (AIDS-related or not) requiring acute systemic therapy within 8 weeks prior to study enrollment, vaccination of any kind within 8 weeks of study enrollment.
Study participants were randomly assigned to receive either active GM-CSF or placebo. Patients were instructed in methods for self-administration of study medication and received preloaded syringes or vials with empty syringes for home use.
The formulation of recombinant human GM-CSF utilized in this clinical trial was LEUKINE® (commercially available from Immunex Corporation, Seattle, Wash.). LEUKINE® and placebo were supplied as lyophilized powders. Both LEUKINE® and placebo were reconstituted by the aseptic injection of Bacteriostatic Water for Injection, USP, containing 0.9% benzyl alcohol. […] These were 40 mg mannitol, USP; 10 mg sucrose, NF; and 1.2 mg TRIS (tromethamine), USP; per vial of study drug. Vials containing placebo were labeled in a fashion identical to vials containing LEUKINE®. Vials of placebo and LEUKINE® were stored refrigerated at 2-8° C. (36-46° F.). […]

HIV = assay: Phase I/II trial: HIV viral load by RNA-PCR (Amplicor) in HIV-infected patients; assay type: in vivo, Human Immunodeficiency Virus (HIV); settings: GM-CSF group versus placebo group throughout the study, concurrent antiretroviral drugs
Description: as §1
This study was a Phase I/II, randomized, double-blind, placebo-controlled, two-center trial involving patients with HIV disease. […] Viral load was determined at baseline (mean of three determinations within fourteen days of study entry), then at two weeks, four weeks, and eight weeks after starting study drugs, and on two separate occasions approximately four weeks after the conclusion of the treatment phase (post-treatment evaluation). […]
At 2, 4 and 8 weeks after the start of study drug and at follow-up (approximately 4 weeks after completion of study drug), patients were examined, their medical histories were updated, and samples were taken for laboratory studies. A central laboratory was utilized for HIV quantification laboratory tests in order to standardize procedures and minimize variability. […]

[2] = WEEK 2, 9 patients, 250 mcg s.c. three times per week
[3] = WEEK 4, 10 patients, 250 mcg s.c. three times per week
[4] = WEEK 8, 10 patients, 250 mcg s.c. three times per week
[5] = WEEK 12 (post-treatment), 10 patients

Substance: GM-CSF: biosynthetic, yeast-derived, recombinant human GM-CSF; single 127 amino acid glycoprotein with leucine instead of proline at position 23
- Effect on CD4^+ T-lymphocyte counts (in words) ([1]; GM-CSF arm versus baseline / placebo, patients concurrently receiving antiretroviral drugs): a trend towards an increase; also recorded: increased at all of the evaluation points; also recorded: significant increase
- Change in CD4^+ T-Lymphocyte Counts Relative to Baseline, Mean (Sd) [1, 2]: 39 (150)
- Change in CD4^+ T-Lymphocyte Counts Relative to Baseline, Median [1, 2]: −9
- Change in CD4^+ T-Lymphocyte Counts Relative to Baseline, Min-Max [1, 2]: −79-389
- Change in CD4^+ T-Lymphocyte Counts Relative to Baseline, Mean (Sd) [1, 3]: 40 (68)
- Change in CD4^+ T-Lymphocyte Counts Relative to Baseline, Median [1, 3]: 34
- Change in CD4^+ T-Lymphocyte Counts Relative to Baseline, Min-Max [1, 3]: −61-135
- Change in CD4^+ T-Lymphocyte Counts Relative to Baseline, Mean (Sd) [1, 4]: 79 (172)
- Change in CD4^+ T-Lymphocyte Counts Relative to Baseline, Median [1, 4]: 4
- Change in CD4^+ T-Lymphocyte Counts Relative to Baseline, Min-Max [1, 4]: −68-424
- Change in CD4^+ T-Lymphocyte Counts Relative to Baseline, Mean (Sd) [1, 5]: 28 (54)
- Change in CD4^+ T-Lymphocyte Counts Relative to Baseline, Median [1, 5]: 30
- Change in CD4^+ T-Lymphocyte Counts Relative to Baseline, Min-Max [1, 5]: −68-112
- Absolute CD4^+ T-Lymphocyte Counts, Baseline CD4 ([1]; individual patients of GM-CSF arm, baseline (pre-treatment), on ritonavir or indinavir regimen): 276 and 383 and 65 and 590 and 152 and 91 and 24 (2×) and 40 and 136
- Absolute CD4^+ T-Lymphocyte Counts, Post-Study CD4 ([1]; individual patients, approximately 4 weeks after completion of 8-week treatment, 250 mcg s.c. three times per week): 208 and 373 and 77 and 659 and 199 and 161 and 11 and 33 and 136 and 200
- Absolute CD4^+ T-Lymphocyte Counts, Week 2 CD4 ([1]; individual patients, week 2, 250 mcg s.c. three times per week for eight weeks, concurrent ritonavir or indinavir regimen): 229 and 304 and 227 and 979 and 77 and 25 and 26 and 15 and 157
- Absolute CD4^+ T-Lymphocyte Counts, Week 4 CD4 ([1]; individual patients, week 4, 250 mcg s.c. three times per week for eight weeks, concurrent ritonavir or indinavir regimen): 356 and 477 and 31 and 725 and 91 and 219 and 12 and 61 and 26 and 182
- Absolute CD4^+ T-Lymphocyte Counts, Week 8 CD4 ([1]; individual patients, week 8, 250 mcg s.c. three times per week for eight weeks, concurrent ritonavir or indinavir regimen): 238 and 750 and 76 and 1014 and 84 and 162 and 21 and 29 and 18 and 176
- Absolute CD4^+ T-Lymphocyte Counts, Post-Study CD4, Median ([1]; median of GM-CSF arm, approximately 4 weeks post-treatment): 180
- Absolute CD4^+ T-Lymphocyte Counts, Baseline CD4, Median ([1]; median of GM-CSF arm, baseline (pre-treatment)): 114
- Absolute CD4^+ T-Lymphocyte Counts, Week 2 CD4, Median ([1]; median of GM-CSF arm, week 2, 250 mcg s.c. three times per week): 157
- Absolute CD4^+ T-Lymphocyte Counts, Week 4 CD4, Median ([1]; median of GM-CSF arm, week 4, 250 mcg s.c. three times per week): 137
- Absolute CD4^+ T-Lymphocyte Counts, Week 8 CD4, Median ([1]; median of GM-CSF arm, week 8, 250 mcg s.c. three times per week): 123
- MAXIMUM CHANGE > 30% THRU WEEK 8, n/N ([1]; patients with CD4^+ change of 30% or more over baseline / patients counted, thru week 8): 6/10
- MAXIMUM CHANGE > 30% THRU WEEK 12, n/N ([1]; patients with CD4^+ change of 30% or more over baseline / patients counted, thru week 12): 8/10
- MAXIMUM CHANGE > 30% THRU WEEK 12, (%) of patients ([1]; share of patients with CD4^+ change of 30% or more over baseline, thru week 12): (80%)
- Change in viral load (in words) (HIV): no significant increase; also recorded: No significant differences; also recorded: without a concurrent increase
